Measurements from patent US20180200323A1, “USE OF TETRAPEPTIDE -3 GEKG OR PENTAPEPTIDE -3 GEKGF FOR TREATING DEGENERATIVE JOINT DISEASE” (priority 2017, published 2018).
“Also recorded” adds a separate entry of the source.

Columns and labels:
[1] = system: arthrodial cartilage of the knee joint; experiment: Rabbit knee cartilage defect model: observation by bare eyes and histomorphometry; type: in vivo, New Zealand white rabbits
Method: (§1) Fifteen (15) healthy adult New Zealand white rabbits were randomly divided into three (3) groups: a normal control group (Group A), a model control group (Group B) and a test group subject to intra-articular injection of a test peptide (Group C), with five (5) rabbits included in each of the groups. Fasting was conducted within four hours before surgical operations. Ketamine (10 mg/kg) and atropine (0.2 mg/kg) were injected in the muscle of each rabbit. After anesthesia took effect, each rabbit was confined to an operating table. An 8 cm-long longitudinal scission was made in the back of each knee before the skin was lifted. From the back of the knee, the articular capsule and synovial were opened. Then, the knee was bent for 90° to expose the cartilage at a lower end of the femur. Two cylindrical cutouts of 3 mm in diameter and 3 mm in depth were made. Coagulation was removed from each of the cutouts. The joint cavity was washed with a sterile saline solution. Stitches were made for each section. After the surgical operation, injection of penicillin was conducted against infection for a week. After five (5) days, each rabbit was able to eat and stand normally.
(§2) Two (2) weeks after the surgical operation, the rabbits of Group A and Group B were not treated, whereas the rabbits of Group C were subject to intra-articular injection of 250 ppm/kg of tetrapeptide-3 GEKG once for every seven (7) days, and the injection lasted for twelve (12) weeks. Articular injection of 0.5 ml of saline was executed, and then 0.2 ml of synovial liquid was collected. The articular capsule was cut and opened, synovial was removed, and an entire tibial joint was taken. Arthropathy in arthrodial cartilage was observed by bare eyes and also via surgical lens. Slices were taken, dyed by hematoxylin and eosin stain (HE Stain) and toluidine blue, and then observed in an optical microscope.

[2] = system: cartilage cells of the growth plate; experiment: Cultivated cartilage cells: DNA content, collagen and proteoglycan production; type: cell-based, rabbits; conditions: 250 ppm
Method: Firstly, cartilage cells of the growth plate of the same rabbits were taken and continuously cultivated. The cultivated cells were divided into three groups. In Group I, only 250 ppm of tetrapeptide-3 GEKG was added. In Group II, only 100 ng/ml of collagen was added. In Group III, 250 ppm of tetrapeptide-3 GEKG and 100 ng/ml of collagen were added. A negative control group was also used. After new tissues of cartilage grew at a lower portion of a centrifuge tube, the new tissues were transferred to a 24-well plate for continuing cultivation, wherein the culture medium was replaced for every 2 days. During the cultivation, samples were collected after three (3), seven (7) and fourteen (14) days, and then were analyzed.
For the histological and histochemical measurements, samples were collected, and HE dying and immunochemical measurement (S-P method) were executed.
The content of DNA in the cells of cartilage was determined by the method of Hoechst 33258.
Extracellular matrix of cartilage primarily comprises collagen and proteoglycan composed of glycosaminoglycan and core protein, in addition to water. The content of the matrix and its status of the metabolism were quantitatively analyzed by determining a level of the collagen and proteoglycan in the new tissues of cartilage.
The synthesis of the collagen of the cartilage is measured by the hydroxyproline method. Because the content of hydroxyproline in the collagen was substantially constant (about 10% by weight), an amount of hydroxyproline could be used to analyze the amount of the collagen of the cartilage by using a commercial kit including the hydroxyproline reagent. The content of the collagen in the samples was calculated.

synovial liquid = experiment: Rabbit knee cartilage defect model: biochemical indicators (NO, SOD, MDA) in synovial liquid; type: in vivo, New Zealand white rabbits
Excerpt: As used in the present invention, all of the methods for measuring SOD, NO and MDA in synovial liquid and collagen and proteoglycan in extracellular matrix of cartilage have been known and conventionally used in the art.
as §1, §2

[3] = Group C vs model control group B
[4] = Group C: intra-articular injection of 250 ppm/kg once every 7 days for 12 weeks

## tetrapeptide-3 GEKG
[1]; [3]
  Morphosis of the arthrodial cartilage compared with Group B: significant improvement
[1]; Group C, HE and toluidine blue stain, optical microscope
  Histomorphometric observation of repaired tissues: the repaired tissues were not substantially different from the normal tissues of the knee joint; also recorded: considerably repaired the damaged tissues of cartilage
[1]; Group C, after 12 weeks of intra-articular injection, 250 ppm/kg
  Repair of knee joint injuries observed by bare eyes: the injuries were completely repaired
[2]; samples after 3, 7 and 14 days
  Hyperosteogeny of the cells of the cartilage: considerable hyperosteogeny
[2]; vs control group, FIG. 1
  Content of DNA of the cells of the cartilage (Hoechst 33258): statistically different from that of the control group
[2]; vs control group, FIG. 2
  Production of collagen of extracellular matrix of cartilage (hydroxyproline method): considerably increased
[2]; vs control group, FIG. 3
  Production of proteoglycan of extracellular matrix of cartilage: considerably increased
Synovial liquid; [3]
  MDA level in synovial liquid (change in words): considerably reduced
  SOD level in synovial liquid (change in words): considerably increased
Synovial liquid; [4]
  MDA level in synovial liquid: 13.12 ± 2.28 c/mol · L^−1
  NO level in synovial liquid: 20.76 ± 2.88 c/mol · L^−1
  SOD level in synovial liquid: 6.60 ± 1.37 c/mol · L^−1
